{"source": "paper PMC8725427", "about": "(Cellulose (London, England), 2022)", "origin": "cited, not measured here", "key": {"[1]": {"conditions": "in vitro, over a period concerned; ref Vedula et al. ([2016])"}, "[2]": {"conditions": "carboxymethyl cellulose 2% (w/v) in PBS medium; ref Gunathilake et al. [2020b]"}, "healthy organs": {"system": "healthy organs", "conditions": "doses as high as 8 g/day; ref Almosa et al. [2020]"}, "HIV-1 integrase": {"molecular_target": "HIV-1 integrase", "conditions": "read-out: IC50 to inhibit the HIV-1 integrase; ref Mazumder et al. [1995]"}, "influenza A virus (IAV)": {"system": "influenza A virus (IAV)", "conditions": "ref Chen et al. [2010]"}, "chikungunya virus": {"system": "chikungunya virus", "conditions": "read-out: IC50 for chikungunya virus; ref von Rhein et al. [2016]"}, "[3]": {"system": "vesicular stomatitis virus", "conditions": "read-out: IC50 for vesicular stomatitis virus"}, "influenza A virus": {"system": "influenza A virus", "conditions": "read-out: IC50 for influenza A virus; ref Richart et al. [2018]"}, "[4]": {"system": "transmissible gastroenteritis virus", "conditions": "read-out: IC50 for transmissible gastroenteritis virus; ref Li et al. [2020]"}, "SARS-CoV-1": {"system": "SARS-CoV-1", "conditions": "read-out: EC50 for SARS-CoV-1 replication inhibition"}, "[5]": {"conditions": "from nanoliposomal carrier, simulated lung fluid; ref Vartak et al. ([2021])"}}, "data": [{"smiles": "Nc1nc2c(ncn2COCCO)c(=O)[nH]1", "note": "[ACV, acyclovir]", "values": [{"measurement": "Percentage of drug release", "setting": "[1]", "value": "~5", "unit": "%"}]}, {"smiles": "COc1cc(/C=C/C(=O)CC(=O)/C=C/c2ccc(O)c(OC)c2)ccc1O", "note": "[curcumin]", "values": [{"measurement": "Curcumin solubility in carboxymethyl cellulose medium", "setting": "[2]", "value": "147 ± 5.66", "unit": "mg/L"}, {"measurement": "Lethal effect on healthy organs", "setting": "healthy organs", "value": "no lethal effect"}, {"measurement": "IC50", "setting": "HIV-1 integrase", "value": 40, "unit": "µM"}, {"measurement": "Effective dose against influenza A virus (IAV)", "setting": "influenza A virus (IAV)", "value": "~ 10 µM"}, {"measurement": "IC50", "setting": "chikungunya virus", "value": 10.8, "unit": "µM"}, {"measurement": "IC50", "setting": "[3]", "value": 4.5, "unit": "µM"}, {"measurement": "IC50", "setting": "influenza A virus", "value": "~200", "unit": "nM"}, {"measurement": "IC50", "setting": "[4]", "value": 8.6, "unit": "µM"}, {"measurement": "EC50", "setting": "SARS-CoV-1", "value": "> 10", "unit": "µM"}]}, {"smiles": "CCC(CC)COC(=O)[C@H](C)N[P@](=O)(OC[C@H]1O[C@@](C#N)(c2ccc3c(N)ncnn23)[C@H](O)[C@@H]1O)Oc1ccccc1", "note": "[Remdesivir, remdesivir]", "values": [{"measurement": "Time to complete drug release", "setting": "[5]", "value": "≤ 50", "unit": "h"}]}]}
